These results are taken from US20160243168A1, “ADOPTIVE CELL TRANSFER METHODS” (Cantex Pharmaceuticals, Inc., priority 2015, published 2016).

Where two headings read alike, the source gives them in different places.

Assay [1] has as its target T1, binding of CXCL12 (SDF-1) to CXCR4 (Homo sapiens, UniProt P48061).
T1 construct: purchased R&D Systems (CXCL12); Abnova (CXCR4)
The assay can be described thus: in vitro inhibition assay of CXCL12 binding to CXCR4 (plate ELISA). Conditions: recombinant human CXCL12 coated plate, recombinant CXCR4, absorbance 450 nm. Here is the method:
Polyvinyl 96-well high bind microplates (Corning Life Sciences, Corning, N.Y.) were coated with 0.5 μg/well of recombinant human CXCL12 (R&D Systems, Minneapolis, Minn.). Plates were incubated overnight at 4° C. and washed three times with PBS-0.05% Tween-20 (PBST). Separately, a constant amount of recombinant CXCR4 (Abnova, Taipei, Taiwan, 100 μL containing 0.8 μg/mL in PBST-0.1% BSA) was incubated with an equal volume of serially diluted ODSH (0.001-1,000 μg/mL in PBST-BSA) overnight at 4° C. The following day, 50 μL of CXCR4-ODSH mix was transferred to each respective CXCL12-coated well and incubated at 37° C. for 2 h. Wells were then washed four times with PBST. To detect bound CXCR4, 50 μL of a mouse anti-human CXCR4 antibody (R&D Systems, Minneapolis, Minn.) (1 μg/mL, in PBST) was added to each well, the mixture was incubated for 1 h at room temperature, and the wells were washed again four times with PBST. Horse-radish peroxidase-conjugated secondary antibody (R&D Systems, Minneapolis, Minn.) (50 μL per well) was added, wells were incubated for 1 h at room temperature, and then washed once with PBST. […] Absorbance at 450 nm was read using an automated microplate reader. IC50 values were determined from the plot of absorbance values vs. concentrations of ODSH.
On the technique in general: An ELISA detects its analyte on a solid surface through an enzyme-linked reagent.

Another assay relates to anticoagulant activity. The assay can be described thus: USP anticoagulant assay. Format: biochemical. Conditions: seven serial 1.2 kg batches.
Assay [2] has as its system Xa. The assay can be described thus: anti-Xa activity assay (plasma treated with Russell viper venom). The class given is biochemical. Conditions: seven serial 1.2 kg batches. The source says:
Another measure of ODSH's anticoagulant activity is its anti-Xa activity which can be determined in an assay carried out using plasma treated with Russell viper venom.

A further assay concerns the target IIa (Homo sapiens, UniProt P00734+P01008). The assay can be described thus: anti-IIa activity assay. The class given is biochemical. As to conditions: seven serial 1.2 kg batches.
The test system of assay [3] is patients with newly diagnosed acute myeloid leukemia (AML). The assay can be described thus: single arm open-label clinical study, induction chemotherapy plus ODSH. The class given is in vivo, human. As for the experimental part: A single arm open-label clinical study was conducted at multiple trial sites (University of Utah, Georgia Regents University, and Medical University of South Carolina) in patients with newly diagnosed acute myeloid leukemia (AML), seeking to confirm that ODSH could accelerate platelet and white blood cell (WBC) recovery in patients receiving induction chemotherapy with a regimen known to have myelosuppressive side effects.
All patients received the following standard (“7+3”) induction regimen, • Idarubicin (12 mg/m^2/day) by short intravenous infusion on Days 1, 2, and 3; and • Cytarabine (100 mg/m^2) as a continuous intravenous infusion over 24 hours (Days 1 through 7).
All patients also received ODSH as an intravenous bolus immediately after the idarubicin dose on Day 1, at a dose of 4 mg/kg, followed by a continuous intravenous infusion at a dose of 0.25 mg/kg/hr for a total of 7 days (Days 1 through 7).
Twelve patients were enrolled. The median age was 56 (range 22-74). Based on cytogenetic, molecular, or antecedent hematologic disorder, 9 of 12 patients fell into the intermediate or poor risk categories. […] Complete remission at the end of the induction cycle was assessed using International Working Group (IWG) criteria (see, e.g., Cheson et al., J. Clin. Oncol. 21:4642 (2003)). […]

A further assay relates to bone marrow cells. In words: serial bone marrow biopsies in the AML trial. Format: in vivo, human. The source says: Bone marrow biopsies were obtained in the AML trial described in Example 1.
FIGS. 2A-2C are photomicrographs of biopsies from one of the patients.

For assay [4], the system named is Xa. Conditions: Rao et al. 2010; cited from earlier work.

T1 sequence (P48061 22-89 limits assumed): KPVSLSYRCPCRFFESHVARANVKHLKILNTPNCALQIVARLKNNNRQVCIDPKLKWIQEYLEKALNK

In the case of 2-O, 3-O desulfated heparin [ODSH], in assay [1], the “IC50 for inhibition of binding of CXCL12 (SDF-1) to CXCR4” value was found to be 0.010 µg/mL. The USP anticoagulant activity in the assay on anticoagulant activity was found to be 7±0.3 U/mg. In the assay on Xa [2], this substance displayed an anti-Xa activity of 1.9±0.1 U/mg. At IIa, this substance displayed an anti-IIa activity of 1.2±0.1 U/mg. In addition, the “myelosuppressive side effects of the idarubicin+cytarabine regimen” value in assay [3] (AML patients) is “significantly attenuated”. Also, the “Complete response with first induction cycle” value in assay [3] (current study, n = 12, morphologic complete remission by IWG criteria) amounted to 92%. Also, the “bone marrow biopsy appearance” value was “unexpected and significant depletion of normal bone marrow cells” with bone marrow cells (Day 14 of the induction cycle, one patient); “no evidence of leukemia and restoration of normal bone marrow appearance and function” in the assay with bone marrow cells (Day 28, one patient).
Take “unfractionated heparin [reference compound]”: the USP anticoagulant activity in the assay with anticoagulant activity was 165-190 U/mg. In addition, the anti-Xa activity in the assay on Xa [2] and in the assay on Xa [4] was 165-190 U/mg in each case. Moreover, on IIa, the anti-IIa activity is listed as 165-190 U/mg.
